Results: patent publication US20040038828A1 (priority 2002, published 2004)
Entries after “also recorded” stand apart in the source; their conditions may differ. Read-outs that look alike come from different tables or passages of the source.

What was measured:
[1] = system: Fusarium oxysporum f. sp. lycopersici (isolate FP-7) spores; assay: Fusarium Tetrazolium Assay; type: cell-based; details: 24 hours of exposure; MTT absorbance at 570 nm
Experimental: Fusarium Tetrazolium Assay: The evaluation of fungicidal activity was performed using a modified colorimetric assay (Mace, M. E., et al., Pesticide Biochemistry and Physiology, 38: 57-59 (1990)). Each candidate compound was tested using a suspension of Fusarium oxysporum f. sp. lycopersici (isolate FP-7) spores harvested from 10-day old petri plates using a 0.05% stock solution of Triton X-100 (referred to as FT stock). Harvested spores were suspended in Czapek-Dox Broth (CDB), prepared according to label instructions, at a ratio of 1:5 CDB:FT. The suspension was then standardized using a Beckman spectrophotometer (430 nm) which had been calibrated using a CDB blank. Compounds were then added to aliquots of the suspension to achieve active ingredient concentrations ranging from 0 ppm (untreated control) to 2000 ppm. Suspensions were incubated for 24 hr at 28° C. A 10% stock solution of MTT ((3-4,5-dimethylthiazole-2-yl)-2,5-diphenyl-2-2H-tetrazolium bromide) was then added to each aliquot; MTT is a vital stain that is commonly used to show if an organism is alive based on a color change). The suspensions were allowed to incubate for 4 hr, and then pelleted, drained, rinsed, and treated with 95% ethanol. The color change, which correlates with spore viability, was assessed using a Beckman spectrophotometer (570 nm) calibrated with 95% ethanol. Benlate® (benomyl) was used as an industry standard control. Each treatment was replicated six times and the assay for each compound was repeated. Regression analysis was performed using Sigma Plot 2000.

[2] = system: purple nutsedge (Cyperus rotundus) tubers; assay: Herbicide screen, nutsedge greenhouse assay (soil drench in pots); type: in vivo; details: for level eliminating the germination of nutsedge: 100 ml soil drench, 500 g soil, tarped 7 days, shoots counted for 60 days
Experimental: (§1) Herbicide Screen: Each compound was tested on seeds of smooth pigweed (Amaranthus hybridus) and barnyard grass (Echinocloa crus-galli), and on tubers of purple nutsedge (Cyperus rotundus), by exposing seeds or tubers to a specific concentration of the test compound. Seeds were surface sterilized (by rinsing in 2% bleach solution for 90 seconds followed by two rinses with sterile water) and 20 seeds placed on sterile filter paper (Whatman #5) in a 10-cm petri plate for each of six replicates for each weed species tested. Twenty ml of compound of concentrations ranging from 0 ppm (sterile water control) to 2000 ppm was added to the petri dishes. Plates were stored at 30° C. in an dark incubator. Seed germination was monitored at 24 hr intervals for 30 days. Petri plate bioassays were repeated twice for each compound. Field collected purple nutsedge tubers were placed in 500 g of field soil with soil moisture adjusted to 5%. Five nutsedge tubers were planted in each 10 cm pot at a depth of 2.5 cm. Six replicate pots of each concentration, ranging from 0 ppm (water control) to 2000 ppm, were treated using 100 ml as a soil drench. Pots were tarped with co-extruded black-on-white polyethylene mulch for 7 days. After the tarps were removed, the number of emerged nutsedge shoots was recorded on a weekly basis for 60 days.

[3] = system: barnyard grass (Echinocloa crus-galli) seeds; assay: Herbicide screen, barnyard grass petri plate bioassay; type: in vivo; details: all ppm levels tested (up to 2000 ppm), 30 days
Experimental: as §1

[4] = system: smooth pigweed (Amaranthus hybridus) seeds; assay: Herbicide screen, smooth pigweed petri plate bioassay; type: in vivo; details: all ppm levels tested (up to 2000 ppm), 30 days
Experimental: as §1

[5] = system: root-knot nematode eggs (Meliodogyne incognita); assay: Nematicide screen, root-knot nematode galling assay on tomato; type: in vivo; details: 0 to 2000 ppm soil drench, tarped 14 days, seedlings assessed 30 days after transplant
Experimental: Nematicide Screen: Efficacy as a nematicide was evaluated by infesting field soil with a standardized quantity of root-knot nematode eggs (Meliodogyne incognita). Soil was partitioned into 10 cm pots containing 500 g of soil each with soil moisture adjusted to 5%. Pots were treated with compounds ranging from 0 ppm to 2000 ppm of active ingredient in a 100-ml soil drench. Six replicate pots of each concentration were treated and tarped with co-extruded black-on-white polyethylene mulch for 14 days. After tarps were removed, a single tomato seedling was transplanted into each pot. Seedlings were removed 30 days later and assessed for root galling, root fresh weight, root dry weight, and number of eggs produced per gram of root tissue.

Verticillium dahliea = type: in vivo; details: Watsonville; preplant fumigation, 400 pound per acre
Common chickweed = type: in vivo; details: Watsonville plots; rate 400 lbs acres^−1
Corn spurry = type: in vivo; details: Watsonville plots; rate 400 lbs acres^−1
Annual sowthistle = type: in vivo; details: Watsonville plots; rate 400 lbs acres^−1
Redstem filaree = type: in vivo; details: Watsonville plots; rate 400 lbs acres^−1
Southern brassbuttons = type: in vivo; details: Watsonville plots; rate 400 lbs acres^−1
Little mallow = type: in vivo; details: Watsonville plots; rate 400 lbs acres^−1
native weed population [6] = type: in vivo
Shepherd-spurse = type: in vivo; details: Salinas plots; rate 400 lbs acres^−1
Henbet = type: in vivo; details: Salinas plots; rate 400 lbs acres^−1
Commong roundsel = type: in vivo; details: Salinas plots; rate 400 lbs acres^−1
native weed population [7] = type: in vivo; details: Salinas plots, rate 400 lbs acres^−1

SMILES: OCCI [2-iodoethanol]
- concentration effective at reducing cell viability to levels achieved with Benlate (100 ppm) [1]: 100-500 ppm
- fungicidal activity (in words) [1]: comparable to the Benlate® control; also recorded: excellent fungicidal activity
- level eliminating the germination of nutsedge [2]: ≥ 500 ppm
- germination of barnyard grass seeds [3]: eliminated at all ppm levels tested
- germination of pigweed seeds [4]: eliminated at all ppm levels tested
- root gall severity on tomato [5]: galling decreases with increased concentration

SMILES: OCCBr [2-bromoethanol]
- fungicidal activity (in words) [1]: excellent fungicidal activity
- level eliminating the germination of nutsedge [2]: ≥ 1000 ppm
- nutsedge germination ([2]; at the 500 ppm level): approximately 50%
- soil applied equivalent of the rate eliminating nutsedge germination ([2]; equivalent of the 1000 ppm drench level): 200 ppm
- germination of barnyard grass seeds [3]: eliminated at all ppm levels tested
- germination of pigweed seeds [4]: eliminated at all ppm levels tested
- root gall severity on tomato [5]: Only the untreated control showed galling of any kind
- reduction of the population of Verticillium dahliea (Verticillium dahliea): 74%
- weed biomass, Common chickweed (Common chickweed): 1.6 gram/m^2
- weed biomass, Corn spurry (Corn spurry): 1.1 gram/m^2
- weed biomass, Annual sowthistle (Annual sowthistle): 0.0 gram/m^2
- weed biomass, Redstem filaree (Redstem filaree): 0.3 gram/m^2
- weed biomass, Southern brassbuttons (Southern brassbuttons): 1.0 gram/m^2
- weed biomass, Little mallow (Little mallow): 0.2 gram/m^2
- control of native weeds (in words) (native weed population [6]; Watsonville): control of most weeds
- weed biomass, Other weeds (native weed population [6]; Watsonville plots, rate 400 lbs acres^−1): 3.6 gram/m^2
- Total weed biomass (native weed population [6]; Watsonville plots, rate 400 lbs acres^−1, same letter = not significantly different at P <0.05): 13.7a gram/m^2
- weed biomass, Shepherd-spurse (Shepherd-spurse): 11.3 gram/m^2
- weed biomass, Henbet (Henbet): 9.4 gram/m^2
- weed biomass, Commong roundsel (Commong roundsel): 0.3 gram/m^2
- weed biomass, Other weeds (native weed population [7]): 21.5 gram/m^2
- Total weed biomass (native weed population [7]; same letter = not significantly different at P < 0.05): 46.7a gram/m^2
